Results taken from US20200011856A1, “Method for Determining the Effectiveness of Treatment for the Prevention of Heartworm Disease” (priority 2017, published 2020).
Several values for one entry are separate records, joined by “and”; a condition that tells them apart may be missing. Equal entries are not always repeated.

System: Dirofilaria immitis
Assay: D. immitis L3 infection of NSG mice (FR3 Missouri strain or strain not stated), treatment, recovery and count of worms at necropsy
Format: in vivo

COC(=O)Nc1nc2ccc(OS(=O)(=O)c3ccc(F)cc3)cc2[nH]1 [compound 8914, luxabendazole]
% Red (Table 9, NSG mice, 50 Di L3, 1 mg/kg on Days 1, 15, and 30, recovery Days 41 to 43): 0%
Mean % Rec (Table 9, group mean, NSG mice, 50 Di L3, 1 mg/kg on Days 1, 15, and 30, recovery Days 41 to 43): 33%
% Rec (Table 9, individual mouse, NSG mice, 50 Di L3, 1 mg/kg on Days 1, 15, and 30, recovery Days 41 to 43): 24% and 32% and 28% and 48%
Mean Survival (in vivo): 17
Survival (in vivo): 12 and 16 and 14 and 24
